Patent publication US20070027143A1, “Novel substituted 2,3-benzodiazepine derivatives” (priority 2003, published 2007)
pIC50: −log10 of the molar value. Where two headings read alike, the source gives them in different places. Marks after values point to notes of the source that are not given here.

How the values were obtained:
CD1 mice [1] = assay: Anticonvulsant activity, 3-mercapto-propionic acid induced seizures; format: in vivo; settings: Mus musculus; po.; read-out: 3-MPA ED50
Description: (§1) The anti-seizure activity of some of the compounds of the present invention was measured using the electroshock test (J. Pharmacol. Exp. Ther. 106:319 (1952)) and the results are shown in Table 3. The spasmolytic activity of the compounds of the present invention was investigated by using e.g., pentetrazole (J. Pharmacol. Exp. Ther. 108:168 (1953)), strychnine (J. Pharmacol. Exp. Ther. 129:75 (1960)), bemegrid, nicotine, bicuculline, 4-aminopyridine and mercapto-propionic acid for inducing the clonic-tonic seizures and lethality. The investigated compounds were administered orally in three doses using 10 male CD1 mice/dose, usually 60 min before the induction of seizures.

AMPA/kainate receptors = assay: Inhibition of AMPA induced whole-cell current in acutely isolated cerebellar Purkinje cells (patch clamp); format: cell-based; settings: 5 μM AMPA, read-out: Inhibition of the ion-currents caused by 5 μM AMPA, IC50
Description: (§2) In the first model the spreading depression caused by glutamate agonists (i.e., AMPA or kainate) was studied, while in the second one the transmembrane ion-current induced by the activation of the AMPA/kainate receptors was measured directly.
The activity of the compounds of the present invention was studied on acutely isolated cerebellar Purkinje cells by measuring the whole-cell current induced by 5 μM AMPA according for example to the method described by Bleakman et al (Neuropharmacology 12:1689 (1996)).

CD1 mice [2] = assay: Anticonvulsant activity, maximal electroshock seizure (MES) test; format: in vivo; settings: Mus musculus, po.
Description: as §1

CD1 mice [3] = assay: Anticonvulsant activity, bicuculline induced seizures; format: in vivo; settings: Mus musculus; po.; read-out: Bicuculline ED50
Description: as §1

CD1 mice [4] = assay: Anticonvulsant activity, bemegride induced seizures; format: in vivo; settings: Mus musculus; po.; read-out: Bemegride ED50
Description: as §1

Lewis rats [5] = assay: Autoimmune encephalomyelitis model, neurological (clinical) symptoms; format: in vivo; settings: for change in vivo at 3.75 mg/kg / change in vivo at 7.5 mg/kg / change in vivo at 1.875 mg/kg: Rattus norvegicus, ip, read-out: Neurological symptoms (change compared to controls, %); for change in vivo at 3.75 mg/kg: 3.75 mg/kg ip.; for change in vivo at 7.5 mg/kg / Neurological symptoms (change, %): 7.5 mg/kg ip.; for Neurological symptoms (change, %): day 24 after immunization; for change in vivo at 1.875 mg/kg: 1.875 mg/kg ip.
Description: (§3) The compounds were administered intraperitoneally twice a day for 8 days, starting on day 10 after immunization and with an observation period until symptoms were present. 5-15 animals were used in each group. Their weights were 160-180 g (Lewis rats, female) and 180-220 g (Lewis rats, male). The activity of the compounds was determined according to the symptom score values, and compared to those of the control group (see Table 6). Histopathological investigations were carried out on the brain stem, the spinal cord, and the sciatic nerve (Gijbels et al., J. Clin. Invest. 94:2177 (1994)) using 5-10 animal/group.
(§4) Compounds of the invention were further investigated in the autoimmune encephalomyelitis model in rats as outlined in this description before, with the variance that 10 animals were used in each group, of weights 140-160 g (Lewis rats, female).

AMPA receptors = assay: Inhibition of AMPA induced spreading depression in isolated chicken retina; format: cell-based; settings: AMPA (5 μM)
Description: as §2
Inhibition of AMPA Induced “Spreading Depression” in Isolated Chicken Retina—
The AMPA antagonistic effect of the compounds of formula (I) or (II) was studied in the in vitro “spreading depression” model (Sheardown Brain Res. 607:189 (1993)). The AMPA antagonists prolong the latency of the development of the “spreading depression” caused by AMPA (5 μM).

CD1 mice [6] = assay: Anticonvulsant activity, pentetrazole induced seizures; format: in vivo; settings: Mus musculus; po.; read-out: Pentetrazol ED50
Description: as §1

CD1 mice [7] = assay: Muscle relaxant activity, inclined screen test; format: in vivo; settings: Mus musculus, ip
CD1 mice [8] = assay: Anticonvulsant activity, nicotine induced seizures; format: in vivo; settings: Mus musculus; po.
Description: as §1

CD1 mice [9] = assay: Anticonvulsant activity, 4-aminopyridine induced seizures; format: in vivo; settings: Mus musculus; po.; read-out: 4-AP ED50
Description: as §1

CD1 mice [10] = assay: Anticonvulsant activity, strychnine induced seizures; format: in vivo; settings: Mus musculus; po.; read-out: Strychnine ED50
Description: as §1

rats = assay: Inhibition of focal ischemia, middle cerebral artery occlusion (MCAO) test; format: in vivo
Description: The focal anti-ischemic activity of the compounds of formula (I) or (II) of the present invention was measured by the “middle cerebral artery occlusion” (MCAO) test (Bartus Stroke 11:2265 (1994) and Sydserff et al, Brit. J. Pharmacol. 114:1631 (1995)). […] After a histological process (TTC staining) 24 h later, the infarcted area was determined by a computer assisted scanner program and was compared to the results obtained in a control group treated with the vehicle.

CD1 mice [11] = assay: Muscle relaxant activity, rotarod test; format: in vivo; settings: Mus musculus, ip
CD1 mice [12] = assay: Anti-tremor effect, GYKI 20039 induced tremor; format: in vivo; settings: Mus musculus; po., Litchfield-Wilcoxon, limits in brackets; read-out: ED50, tremor induced by GYKI 20039 10 mg/kg ip.
CD1 mice [13] = assay: Anti-tremor effect, oxotremorine induced tremor; format: in vivo; settings: Mus musculus; po., Litchfield-Wilcoxon, limits in brackets; read-out: ED50, tremor induced by Oxotremorin 1 mg/kg ip.
Lewis rats [14] = assay: Autoimmune encephalomyelitis model, histological symptoms; format: in vivo; settings: 7.5 mg/kg ip., day 24 after immunization
Description: as §3, with “5-15” for “The compounds were administered intraperitoneally twice a day for 8 days, starting on day 10 after immunization and with an observation period until symptoms were present. 5-15”
as §4

[15] = 0.5 h, 30′, read-out: MES 30′ ED50
[16] = 1 h, 60 min before induction, read-out: MES (MES 60′) ED50
[17] = 2 mg/kg iv. 6x in every 30 min, first treatment 180 min after occlusion

## C[C@@H]1Cc2cc3c(cc2C(c2ccc(N)cc2)=NN1C1=NCCS1)OCO3 [Example 69, (R)-5-(4-Aminophenyl)-7-(4,5-dihydro-thiazol-2-yl)-8-methyl-8,9-dihydro-7H-1,3-dioxolo-[4,5-h][2,3]benzodiazepine]
CD1 mice [1]
  ED50: 34.2 mg/kg
AMPA/kainate receptors
  pIC50: 6.38
CD1 mice [2]; [15]
  ED50: 8.7 mg/kg
CD1 mice [2]; [16]
  ED50: 14.7 mg/kg
CD1 mice [3]
  ED50: 18.1 mg/kg
CD1 mice [4]
  ED50: 33.3 mg/kg
Lewis rats [5]; female rats, 0-8 day
  change in vivo at 3.75 mg/kg: 43%
  change in vivo at 7.5 mg/kg: -29%
Lewis rats [5]; female rats, 0-14 day
  change in vivo at 3.75 mg/kg: 58%
  change in vivo at 7.5 mg/kg: -24%
Lewis rats [5]; male rats, 0-8 day
  change in vivo at 3.75 mg/kg: 35%
  change in vivo at 7.5 mg/kg: -51%
Lewis rats [5]; male rats, 0-14 day
  change in vivo at 3.75 mg/kg: -40%
  change in vivo at 7.5 mg/kg: -50%
AMPA receptors
  pIC50: 6.05
other
  melting point: 148 to 150 °C
CD1 mice [6]
  ED50: 46.9 mg/kg
CD1 mice [7]
  ED50: 12.2 mg/kg
CD1 mice [8]
  ED50: 16.8 mg/kg
CD1 mice [9]
  ED50: 16.6 mg/kg
CD1 mice [10]
  ED50: 27.7 mg/kg
rats; [17]
  Decrease of the infracted area in % compared to that of the control: 28%
CD1 mice [11]
  ED50: 1.2 mg/kg

## Cc1cc(C2=NN(c3nncs3)[C@H](C)Cc3cc4c(cc32)OCO4)ccc1N [Example 167, (R)-5-(4-Amino-3-methylphenyl)-8-methyl-7-(1,3,4-thiadiazol-2-yl)-8,9-dihydro-7H-1,3-dioxolo-[4,5-h][2,3]benzodiazepine]
CD1 mice [1]
  ED50: 10.3 mg/kg
AMPA/kainate receptors
  pIC50: 7.15
CD1 mice [2]; [15]
  ED50: 4.78 mg/kg
CD1 mice [2]; [16]
  ED50: 5.85 mg/kg
CD1 mice [3]
  ED50: 12.7 mg/kg
CD1 mice [4]
  ED50: 8.33 mg/kg
CD1 mice [12]
  ED50: 7.73 mg/kg
AMPA receptors
  pIC50: 7.19
other
  melting point: 143 to 148 °C
CD1 mice [13]
  ED50: 4.81 mg/kg
CD1 mice [6]
  ED50: 9.66 mg/kg
CD1 mice [7]
  ED50: 4.24 mg/kg
CD1 mice [9]
  ED50: 10.8 mg/kg
CD1 mice [10]
  ED50: 10.5 mg/kg
CD1 mice [11]
  ED50: 0.8 mg/kg

## Cc1nnc(N2N=C(c3ccc(N)c(Cl)c3)c3cc4c(cc3C[C@H]2C)OCO4)s1 [Example 182, (R)-5-(4-Amino-3-chlorophenyl)-8-methyl-7-(5-methyl-1,3,4-thiadiazol-2-yl)-8,9-dihydro-7H-1,3-dioxolo-[4,5-h][2,3]benzodiazepine]
CD1 mice [1]
  ED50: 7.57 mg/kg
AMPA/kainate receptors
  pIC50: 7.51
CD1 mice [2]; [15]
  ED50: 5.08 mg/kg
CD1 mice [2]; [16]
  ED50: 6.17 mg/kg
CD1 mice [3]
  ED50: 8.44 mg/kg
CD1 mice [4]
  ED50: 7.94 mg/kg
CD1 mice [12]
  ED50: 3.64 mg/kg
AMPA receptors
  pIC50: 7.70
other
  melting point: 98 to 100 °C
CD1 mice [13]
  ED50: 2.66 mg/kg
CD1 mice [6]
  ED50: 8.37 mg/kg
CD1 mice [7]
  ED50: 5.84 mg/kg
CD1 mice [8]
  ED50: 24.2 mg/kg
CD1 mice [9]
  ED50: 5.44 mg/kg
CD1 mice [10]
  ED50: 5.9 mg/kg
CD1 mice [11]
  ED50: 2.61 mg/kg

## CCc1nnc(N2N=C(c3ccc(N)c(C)c3)c3cc4c(cc3C[C@H]2C)OCO4)s1 [Example 165, (R)-5-(4-Amino-3-methylphenyl)-7-(5-ethyl-1,3,4-thiadiazol-2-yl)-8-methyl-8,9-dihydro-7H-1,3-dioxolo-[4,5-h][2,3]benzodiazepine]
CD1 mice [1]
  ED50: 8.53 mg/kg
AMPA/kainate receptors
  pIC50: 7.62
CD1 mice [2]; [15]
  ED50: 2.39 mg/kg
CD1 mice [2]; [16]
  ED50: 3.99 mg/kg
CD1 mice [3]
  ED50: 5.79 mg/kg
CD1 mice [4]
  ED50: 10 mg/kg
CD1 mice [12]
  ED50: 5.34 mg/kg
AMPA receptors
  pIC50: 6.95
other
  melting point: 129 to 133 °C
CD1 mice [13]
  ED50: 4.63 mg/kg
CD1 mice [6]
  ED50: 10.1 mg/kg
CD1 mice [7]
  ED50: 2.94 mg/kg
CD1 mice [8]
  ED50: 18.6 mg/kg
CD1 mice [9]
  ED50: 8.6 mg/kg
CD1 mice [10]
  ED50: 10.2 mg/kg
CD1 mice [11]
  ED50: 0.91 mg/kg

## C[C@@H]1Cc2cc3c(cc2C(c2ccc(N)cc2)=NN1c1nccs1)OCO3 [Example 61, (R)-5-(4-Aminophenyl)-8-methyl-7-(2-thiazolyl)-8,9-dihydro-7H-1,3-dioxolo[4,5-h][2,3]benzodiazepine]
CD1 mice [1]
  ED50: 11 mg/kg
AMPA/kainate receptors
  pIC50: 6.31
CD1 mice [2]; [15]
  ED50: 11.5 mg/kg
CD1 mice [2]; [16]
  ED50: 13.1 mg/kg
CD1 mice [3]
  ED50: 31 mg/kg
CD1 mice [4]
  ED50: 34.4 mg/kg
Lewis rats [5]; female rats
  Neurological symptoms (change, %): −53%
Lewis rats [5]; male rats
  Neurological symptoms (change, %): −54%
Lewis rats [5]; female rats, 0-8 day
  change in vivo at 1.875 mg/kg: -18%
  change in vivo at 3.75 mg/kg: -44%
  change in vivo at 7.5 mg/kg: -56%
Lewis rats [5]; female rats, 0-14 day
  change in vivo at 1.875 mg/kg: -7%
  change in vivo at 3.75 mg/kg: -48%
  change in vivo at 7.5 mg/kg: -53%
Lewis rats [5]; male rats, 0-8 day
  change in vivo at 1.875 mg/kg: 13%
  change in vivo at 3.75 mg/kg: -44%
  change in vivo at 7.5 mg/kg: -60%
Lewis rats [5]; male rats, 0-14 day
  change in vivo at 1.875 mg/kg: 5%
  change in vivo at 3.75 mg/kg: -46%
  change in vivo at 7.5 mg/kg: -63%
Lewis rats [5]; result in words
  Activity compared to the reference compound (histopathological and pharmacological investigations): more active than the reference compound GYKI 53773
AMPA receptors
  pIC50: 5.30 to 6.00
other
  melting point: 125 to 130 °C
CD1 mice [6]
  ED50: 32.5 mg/kg
CD1 mice [7]
  ED50: 10.7 mg/kg
Lewis rats [14]; female rats
  Histological symptoms (change, %): −5%
Lewis rats [14]; male rats
  Histological symptoms (change, %): −20%
CD1 mice [8]
  ED50: 59.3 mg/kg
CD1 mice [9]
  ED50: 17.6 mg/kg
CD1 mice [10]
  ED50: 35.4 mg/kg
rats; 1 mg/kg iv. 6x in every 30 min, first treatment 120 min after occlusion
  Decrease of the infracted area in % compared to that of the control: 63** %
rats; 1 mg/kg iv. 6x in every 30 min, first treatment 180 min after occlusion
  Decrease of the infracted area in % compared to that of the control: 16%
rats; [17]
  Decrease of the infracted area in % compared to that of the control: 46* %
rats; result in words
  Neuroprotective activity when administered 3 h after the occlusion: significant activity
CD1 mice [11]
  ED50: 5.4 mg/kg
